Laboratory results: patent US4698350A, “1-ethyl-6-fluoro-1,4-dihydro- 7-(2,6-dimethyl-4-pyridinyl)-4-oxo-3-quinolinecarboxylic acid and antibacterial use thereof” (Sterling Drug Inc., priority 1984, dated 1987)
Structures can show the parent of a compound that is named as a salt. Where two headings read alike, the source gives them in different places.

What was measured:
S. edidermidis = assay: In vitro MIC/MBC summary (Table II); format: cell-based, S. epidermidis; details: Staphylococcus epidermidis, 5 S. edidermidis strains
Procedure: (§1) Win 52,522 and Win 35,439 were solubilized in 0.1 ml of 0.5 N NaOH/mg of compound and diluted in sterile distilled water to 160 mcg/ml. Vancomycin and methicillin were solubilized in sterile distilled water to 1250 mcg/ml of base compound. The stock solutions were sterilized by filtration through membrane filters with a 0.45 μm pore size.
(§2) The bacterial cultures listed in Table I (hereinbelow) were grown overnight at 37° C. in MHB for all cultures except the Streptococcus strains. These were grown in BHI+10% NHS. The overnight broth cultures were adjusted to an optical density of 0.10 (650 nm, B L Spectronic 20) in sterile distilled water and subsequently diluted to 6.7×10^6 cells/ml in MHB or BHI+1% NHS.
(§3) Serial two-fold dilutions of the compound solutions were prepared in MHB (or in BHI+1% NHS for tests with Streptococci) and dispensed into 96-well microtiter trays in a volume of 0.1 ml/well using a Sandy Springs (Bellco Glass Co.) dispenser. The trays were then inoculated with 0.0015 ml of a suspension containing 6.7×10^6 cells/ml of the appropriate inoculum using a MIC-2000 inoculator (Dynatech Corp.) resulting in a final inoculum of approximately 1×10^4 cells/well or 1×10^5 cells/ml. The trays were incubated at 37° C. for 18-20 hours and the minimal inhibitory concentration (MIC), defined as the lowest concentration of compound to inhibit visible bacterial growth, was recorded.
(§4) After the MIC values were recorded, the contents in the microtiter trays were thoroughly mixed on a Bellco Mini-orbital Shaker (Bellco Glass Co.) for 3 min. at a setting of 8. A portion (0.0015 ml) from each well was then transferred via an MIC-2000 inoculator to plates containing MHA or BHI agar+10% NHS. The plates were incubated at 37° C. for 18-20 hrs. The minimal bactericidal concentration (MBC), defined as the lowest concentration of compound that prevented the formation of a recognizable colony on the agar surface, was recorded.

Streptococcus sp. = assay: In vitro MIC/MBC summary (Table II); format: cell-based; details: 9 Streptococcus sp. strains
Procedure: as §1, §2, §3, §4

S. aureus = assay: In vitro MIC/MBC summary (Table II); format: cell-based; details: Staphylococcus aureus
Procedure: as §1, §2, §3, §4

[1] = tested on: Staphylococcus aureus 39881 (Methicillin-resistant); assay: Mouse protection test, S. aureus 39881 (methicillin-resistant) infection; format: in vivo, ICR mice; Staphylococcus aureus; details: for Survivors/Total: two doses
Procedure: ICR mice, female, 18-20 grams each.
Solutions of Win 52,522 and Win 35,439 were prepared by dissolving the appropriate weight of drug in 0.3 to 0.4 ml of 1 N NaOH and then bringing the solutions to the desired volume with distilled water. Methicillin and vancomycin were dissolved directly in distilled water.
The culture was streaked onto three Brain Heart Infusion Agar plates and incubated 16 hours at 37° C. The cells were washed off each plate with five ml of saline and the cell suspension was shaken with glass beads for two minutes on a paint shaker. The suspension was diluted with saline so that a […] gave a 44% T reading on a B+L Spectronic 20 (650 nm) calibrated with saline. The stock suspension was diluted 1:24 (10 ml stock suspension+230 ml 5% mucin) to obtain the test inoculum containing 1.55×10^9 cells/ml.
Mice were inoculated intraperitoneally with 0.5 ml of the bacterial test inoculum.
Mice were medicated twice: at one-half and four hours postinfection. The drugs were administered by both subcutaneous (0.2 ml) and oral (0.5 ml) routes.
Deaths were recorded daily for seven days for all tests. Fifty percent protective dose values (PD50's) were calculated using probit analysis [SAS Users Guide: Statistics, 1982 Edition, SAS Institute, Inc., Cary, N.C.].

S. pneumoniae Type I = assay: In vitro antibacterial MIC/MBC test; format: cell-based; details: Streptococcus pneumoniae, S. pneumoniae Type I
Procedure: as §1, §2, §3, §4

S. aureus 39881 = assay: In vitro antibacterial MIC/MBC test; format: cell-based; details: Staphylococcus aureus, S. aureus 39881
Procedure: as §1, §2, §3, §4

S. aureus 4-81 = assay: In vitro antibacterial MIC/MBC test; format: cell-based; details: Staphylococcus aureus, 481, S. aureus 4-81
Procedure: as §1, §2, §3, §4

S. epidermidis 2-1-B = assay: In vitro antibacterial MIC/MBC test; format: cell-based; details: Staphylococcus epidermidis, 21B, S. epidermidis 2-1-B
Procedure: as §1, §2, §3, §4

S. pyogenes C203 = assay: In vitro antibacterial MIC/MBC test; format: cell-based; details: Streptococcus pyogenes, S. pyogenes C203
Procedure: as §1, §2, §3, §4

S. faecalis 4510 = assay: In vitro antibacterial MIC/MBC test; format: cell-based; details: Enterococcus faecalis, S. faecalis 4510
Procedure: as §1, §2, §3, §4

S. aureus S-500 = assay: In vitro antibacterial MIC/MBC test; format: cell-based; details: Staphylococcus aureus, S500, S. aureus S-500
Procedure: as §1, §2, §3, §4

S. pyogenes (89) = assay: In vitro antibacterial MIC/MBC test; format: cell-based; details: Streptococcus pyogenes, S. pyogenes SWRI No. 89
Procedure: as §1, §2, §3, §4

Question: What does the source list for COc1cccc(OC)c1C(=O)N[C@@H]1C(=O)N2[C@@H]1SC(C)(C)[C@@H]2C(=O)O [Methicillin, 6-(2,6-dimethoxybenzamido)penicillanic acid sodium salt]?
Answer: MBC (S. edidermidis; read-out: MBC 50%): 4 µg/mL; MBC (S. edidermidis; read-out: MBC 90%): 4 µg/mL; MBC (S. edidermidis; read-out: MBC Range): 2 to 4 µg/mL; MIC50 (S. edidermidis; read-out: MIC 50%): 2 µg/mL; MIC90 (S. edidermidis; read-out: MIC 90%): 4 µg/mL; MIC (S. edidermidis; read-out: MIC Range): 1 to 4 µg/mL; MBC (Streptococcus sp.; read-out: MBC 50%): 0.125 µg/mL; MBC (Streptococcus sp.; read-out: MBC 90%): 64 µg/mL; MIC50 (Streptococcus sp.; read-out: MIC 50%): 0.25 µg/mL; MIC90 (Streptococcus sp.; read-out: MIC 90%): 64 µg/mL; MIC50 (S. aureus): 2 µg/mL; MIC90 (S. aureus): 8 µg/mL; MBC (S. aureus; read-out: MBC 90%): > 64 µg/mL; MIC (S. aureus; read-out: MIC Range): 1 to 125 µg/mL; Survivors/Total ([1]; 25 mg/kg sc): 0/10; Survivors/Total ([1]; 50 mg/kg sc): 0/10; Survivors/Total ([1]; 100 mg/kg sc): 0/10; ED50 ([1]; Staphylococcus aureus, 168 h, sc, two doses one-half and four hours postinfection, read-out: Protective Dose 50% (95% Confidence Limits)): > 100 mg/kg; MBC (S. pneumoniae Type I; read-out: MBC): ≤ 0.06 µg/mL; MIC (S. pneumoniae Type I; read-out: MIC): ≤ 0.06 µg/mL; MBC (S. aureus 39881; read-out: MBC): > 125 µg/mL; MIC (S. aureus 39881; read-out: MIC): 125 µg/mL; MBC (S. aureus 4-81; read-out: MBC): 2 µg/mL; MIC (S. aureus 4-81; read-out: MIC): 2 µg/mL; MBC (S. epidermidis 2-1-B; read-out: MBC): 2 µg/mL; MIC (S. epidermidis 2-1-B; read-out: MIC): 1 µg/mL; MBC (S. pyogenes C203; read-out: MBC): 0.125 µg/mL; MIC (S. pyogenes C203; read-out: MIC): 0.125 µg/mL; MBC (S. faecalis 4510; read-out: MBC): 64 µg/mL; MIC (S. faecalis 4510; read-out: MIC): 64 µg/mL; MBC (S. aureus S-500; read-out: MBC): 32 µg/mL; MIC (S. aureus S-500; read-out: MIC): 8 µg/mL; MBC (S. pyogenes (89); read-out: MBC): ≤ 0.06 µg/mL; MIC (S. pyogenes (89); read-out: MIC): ≤ 0.06 µg/mL
